SMILES strings stand for the structures. pIC50: −log10 of the molar value. Values joined by “and” are separate entries in the source; they are usually repeats but may differ in a detail not shown here. Equal values may be shown once. Read-outs that look alike come from different tables or passages of the source.

In general, pIC50 refers to the IC50 on a negative log10 scale, so that one unit is a factor of ten. By inhibition is commonly meant the drop in the measured response relative to a control, in per cent.

The target in test [1] is T1, HDAC class I (Homo sapiens, UniProt Q13547).
T1 construct: made in house; host or cells: High5 insect cells
T1 sequence (Q13547 whole entry): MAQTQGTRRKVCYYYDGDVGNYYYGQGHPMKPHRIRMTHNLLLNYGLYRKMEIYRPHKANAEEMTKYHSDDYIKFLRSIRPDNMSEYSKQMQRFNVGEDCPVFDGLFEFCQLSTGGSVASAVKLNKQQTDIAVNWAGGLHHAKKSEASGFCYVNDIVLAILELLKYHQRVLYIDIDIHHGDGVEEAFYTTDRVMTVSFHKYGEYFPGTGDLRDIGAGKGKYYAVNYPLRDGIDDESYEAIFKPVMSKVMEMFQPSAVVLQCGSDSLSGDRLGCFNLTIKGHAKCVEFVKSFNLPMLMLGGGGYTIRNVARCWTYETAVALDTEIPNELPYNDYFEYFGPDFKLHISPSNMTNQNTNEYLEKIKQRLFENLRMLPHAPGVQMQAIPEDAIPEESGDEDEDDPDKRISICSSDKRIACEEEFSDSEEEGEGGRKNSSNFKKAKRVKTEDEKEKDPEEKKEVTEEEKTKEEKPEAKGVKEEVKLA
Briefly: in vitro HDAC assay, IC50 stated for the enzyme class. The note with it: class I enzyme inhibition. It counts as biochemical. From the text:
(§1) IC50 values may be calculated from dose-response curves. […] Biochem J. Aug. 15, 2000;350 Pt 1:199-205.

Test [2] concerns PC-3 cell line. Put plainly: SRB proliferation assay, interval treatment. It counts as cell-based. The note with it: Homo sapiens, read-out: growth inhibition. The protocol: (§2) SRB proliferation assay: The reduction in cellular biomass was measured by SRB-assay. For this assay cells were seeded in 96 well culture dishes at densities between 3000 and 8000 cells per well. […] Cells were fixed with cold Trichloracetat (TCA) producing a final TCA concentration of 10%. After 1 hour of incubation at 4° C. the cells were washed five times with water and air dried. Fixed cells were stained for 30 minutes with 0.4% (wt/vol) Sulforhodamine B (SRB) dissolved in 1% acetic acid and washed four times with 1% acetic acid to remove unbound dye. After air drying bound dye was solubilized with 10 mM unbuffered Tris base (pH 10.5) for 5 minutes. Optical densities (OD) were read on a Molecular Devices Versa Max tunable microplate reader at 520-550 nm. Four test wells for each dose-response were set in parallel with 12 control wells per cell line. Measurement of the cell population density at time 0 (T0; the time at which the drug was added) was also made from 12 reference wells of cells fixed with TCA just prior to drug addition to the test plates. Background OD of complete medium with 5% FBS fixed and stained as described above was also determined in 12 separate wells. From the unprocessed OD data from each microtiter plate the background OD measurements (i.e. OD of complete medium plus stain and OD of cells at T0) were subtracted thus giving the reduction of cellular biomass of the cells.

Test [3] relates to Colo320DM cell line. Put plainly: SRB proliferation assay, interval treatment. In kind it is cell-based. Particulars: Homo sapiens, COLO 320DM, 1 mM VPA, read-out: growth inhibition. The protocol:
as §2
(The SRB assay estimates cell density from bound dye.)

For test [4], the target named is HDAC 8 (Homo sapiens). Briefly: biochemical. An excerpt: (§3) in vitro HDAC assay for determination of IC50 values: The determination of histone deacetylase activity in recombinant HDAC proteins derived from expression in High5 insect cells is based on the specific deacetylation of an artificial substrate (Fluor de Lys, Biomol). The substrate turn over may be detected and quantified by fluorometry. By addition of a HDAC inhibitor the hydrolysis of the substrate is constrained resulting in a decreased fluorometric signal. IC50 values may be calculated from dose-response curves. The assay is separated in two steps: in the first step the substrate (Fluor de Lys/Biomol KI-104) is hydrolysed by histone deacetylases. In step two HDAC activity is terminated and the fluorophore is activated by the addition of a developer (Developer/Biomol KI-105). […] 25 μl substrate (1:100 dilution in reaction buffer) per well are added to start the reaction. A negative control without histone deacetylase activity and a positive control without HDAC inhibitor are treated likewise. The reaction is stopped after 15-60 min. by adding 50 μl developer (1:20 dilution in reaction buffer). After another 15 min. incubation time at room temperature the fluorescence signal is stable for 60 min and may be detected by a fluorescence reader (excitation filter: 390 nm, emission filter: 460 nm). […]
Sequence of HDAC 8 (Homo sapiens) (Q9UBN7 whole entry): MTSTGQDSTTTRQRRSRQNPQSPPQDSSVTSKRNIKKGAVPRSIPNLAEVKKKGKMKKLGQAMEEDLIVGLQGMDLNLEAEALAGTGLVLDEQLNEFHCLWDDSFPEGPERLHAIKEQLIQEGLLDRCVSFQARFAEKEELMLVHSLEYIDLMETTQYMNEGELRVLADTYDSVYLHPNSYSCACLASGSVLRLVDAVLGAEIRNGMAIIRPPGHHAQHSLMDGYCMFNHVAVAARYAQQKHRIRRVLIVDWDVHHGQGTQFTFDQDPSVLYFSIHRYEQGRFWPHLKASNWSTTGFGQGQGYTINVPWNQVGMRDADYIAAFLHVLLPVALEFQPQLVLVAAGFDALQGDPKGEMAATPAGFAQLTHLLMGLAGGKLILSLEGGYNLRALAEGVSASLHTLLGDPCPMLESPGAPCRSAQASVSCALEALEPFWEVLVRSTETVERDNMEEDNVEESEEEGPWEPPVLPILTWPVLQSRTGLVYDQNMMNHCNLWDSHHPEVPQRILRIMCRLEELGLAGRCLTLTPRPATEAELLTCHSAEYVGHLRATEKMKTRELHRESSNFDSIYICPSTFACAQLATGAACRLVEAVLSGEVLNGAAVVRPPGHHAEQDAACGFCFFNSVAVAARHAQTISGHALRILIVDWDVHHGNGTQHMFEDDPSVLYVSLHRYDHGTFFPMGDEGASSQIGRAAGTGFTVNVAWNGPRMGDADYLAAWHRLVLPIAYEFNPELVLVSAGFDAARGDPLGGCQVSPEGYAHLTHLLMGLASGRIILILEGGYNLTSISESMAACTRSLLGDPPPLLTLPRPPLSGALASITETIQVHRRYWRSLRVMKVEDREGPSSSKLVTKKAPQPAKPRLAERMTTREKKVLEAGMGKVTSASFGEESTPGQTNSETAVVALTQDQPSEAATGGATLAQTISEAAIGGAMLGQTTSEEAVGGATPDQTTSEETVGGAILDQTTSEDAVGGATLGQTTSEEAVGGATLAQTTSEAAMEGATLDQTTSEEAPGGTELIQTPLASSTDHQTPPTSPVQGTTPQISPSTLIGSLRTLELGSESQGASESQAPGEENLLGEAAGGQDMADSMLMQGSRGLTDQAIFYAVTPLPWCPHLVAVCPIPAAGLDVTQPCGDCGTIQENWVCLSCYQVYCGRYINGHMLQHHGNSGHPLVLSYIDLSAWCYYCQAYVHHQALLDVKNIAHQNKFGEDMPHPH

Test [5] concerns the target HDAC 6 (Homo sapiens, UniProt Q9UBN7). Put plainly: biochemical.
Source text: as §3

The test system of test [6] is Histone H3 and H4. Briefly: Western blot of peripheral blood cells of patients, phase I/II trial. In kind it is in vivo, human. The protocol: (§4) Blood samples were taken before and 6 h, 24 h as well as 48 h after treatment start.
(§5) Whole cell extracts were prepared by lysis of cells in RIPA buffer plus protease inhibitors for denaturing SDS gel electrophoresis on a 12% denaturing polyacrylamide gel. Acetylated histones H3 and H4 and marker protein HDAC 2 were detected by Western blot analysis using an anti-acetyl Histone H3 antibody (Upstate, #06-942), an anti-acetyl Histone H4 antibody (clone T25; patent application EP 02.021984.6), and an anti-HDAC 2 antibody (SCBT, SC-7899). As an equal loading control PVDV membranes were stained with Coomassie.
On the technique in general: Immunoblotting shows a protein as a band on a membrane.

The subject of test [7] is HDAC 2. The description is as above. In kind it is in vivo, human. Particulars: patients with serum levels above the therapeutic plasma concentration. As to the method:
as §4, §5

The test system of test [8] is PC3 prostate carcinoma cells. Briefly: PC-3 mouse xenograft model. It counts as in vivo. As to the method:
24 athymic Nu/Nu^−/− mice were injected with 1×10^6 PC3 prostate carcinoma cells in 100 μl PBS into the right flank (8 animals per group). Tumors were allowed to grow for 4 days. Animals were treated with PBS (control), 2×200 mg/kg/d or 2×400 mg/kg/d, respectively, from day 5 until day 21. Tumor volumes were measured every 3-4 days.
Mouse Xenograft Model: 24 athymic Nu/Nu^−/− (Harlan) mice were injected with 1×10^6 PC3 prostate carcinoma cells in 100 μl PBS into the right flank (8 animals per group). Tumors were allowed to grow for 4 days. […] Tumor volumes were measured every […].

The subject of test [9] is Histone H3 in 293T cells. Briefly: Western blot of 293T cells treated by release-pattern schemes. It counts as cell-based. The protocol:
Whole cell extracts were prepared by lysis of cells in RIPA buffer plus protease inhibitors for denaturing SDS gel electrophoresis on a 12% denaturing polyacrylamide gel. Acetylated histones H3 were detected by Western blot analysis using an anti-acetylated H3 antibody (Upstate, #06-942).

Test [10] deals with T2, HDAC 1 (Homo sapiens, UniProt Q13547).
T2 construct: made in house; host or cells: High5 insect cells
T2 sequence (Q13547 whole entry): as the sequence (Q13547 whole entry) above
Briefly: in vitro HDAC assay with recombinant HDAC proteins (Fluor de Lys substrate). Particulars: recombinant protein purified from High 5 insect cells; read-out: IC50 for HDAC 1 (class I). It counts as biochemical.
Source text: as §1

Sequence of HDAC 6 (Q9UBN7 whole entry): as the sequence (Q9UBN7 whole entry) above

For `CCCC(CCC)C(=O)O` [VPA, 2-propyl-pentanoic acid], the pIC50 in test [1] is ~3.70 and 3.70; in [4], about 2.96; in test [5], 2.96; in test [10] it was 3.70 and ~3.70. Moreover, the inhibition at 1000 µM stood at 57% in test [2] (PC-3, 66 h, PC3, 1 mM VPA, continuous exposure 66 h); 26% in test [2] (PC-3, PC3, 1 mM VPA, 2×8 hours exposure, 40 h treatment free interval ("8 h d")); 43% in test [2] (PC-3, PC3, 1 mM VPA, 2×20 hours exposure, 26 h treatment free interval ("20 h d")); 27% in test [3] (2×8 hours exposure, 40 h treatment free interval ("8 h d")); 57% in test [3] (2×20 hours exposure, 26 h treatment free interval ("20 h d")); 80% in test [3] (66 h, continuous exposure 66 h). Moreover, the “correlation of VPA serum peak levels with induction of histone hyperacetylation” value in test [6] (peripheral blood cells before and 6 h, 24 h, 48 h after treatment start, intravenous VPA) is recorded as “clear correlation”. In addition, in [6] (peripheral blood cells, patients with serum levels above the therapeutic plasma concentration), the “histone H3 and H4 hyperacetylation” value is “could be detected”. Also, the “regulation of the marker protein HDAC 2” value in test [7] is on record as “down regulation”. Further, the anti-tumoral effect result in test [8] (200 mg/kg/d twice daily, day 5 until day 21) is reported as “no anti-tumoral effect”. In addition, the “PC-3 tumor volume reduction” value in [8] (400 mg/kg/d twice daily, day 5 until day 21, compared to PBS control) is listed as over 25%. In test [9] (VPA above IC50 for class I HDAC, exposure 6 h, 15 h, 24 h), the “degree of histone hyperacetylation” value is given as “strongly enhanced when the period of exposure is prolonged”. Also, in test [9] (Western blot), the “degree of histone hyperacetylation induction, "fast release" or "slow release" exposure each on their own compared with bi-phasic PEAC exposure” value is on record as “less effective”.

(Values after US20070232528A1, “Formulation comprising histone deacetylase inhibitors” (priority 2004, published 2007).)
